# Laboratory results from patent US11939402B2, “Antifungal peptides, compounds including the same, and methods of use thereof” (priority 2022, dated 2024).
# Where a SMILES comes first, the peptide text is derived from it. The star is where a group is joined. Palmitoyl = CCCCCCCCCCCCCCCC(=O)*; Myristoyl = CCCCCCCCCCCCCC(=O)*; Decanoyl = CCCCCCCCCC(=O)*; Hexanoyl = CCCCCC(=O)*
# Legend:
# [1] = test system: C. neoformans wild type strain H99; assay: microbe, parasite or virus in culture; assay type: cell-based, Cryptococcus neoformans; conditions: alone; for MIC ug/mL H99: wild-type H99, read at 24 and 48 hours, 37° C.
# Procedure: The assays followed standard CLSI protocol for broth microdilution assays using yeasts.(32) Microbes were passaged in YPD media at 37° C. with mixing for 2 days before harvesting with an inoculation loop to prepare monocultures on Sabouraud Dextrose Agar (SDA) plates. Monocultures on SDA plates were incubated for 2 days at 37° C. before harvesting cells for microdilution assays. RPMI media (100 μL) was charged to each of the 96 wells in a 96 well plate, with an additional 100 μL in the first column. […] The 100 μL was serially diluted by a factor of 2 from the first column to the 11th column. Microbe inoculant was then prepared. An inoculation loop was used to transfer 1-3 colonies of cells to 1 mL phosphate buffer solution (PBS). The PBS and microbe solution was made uniform by vortex mixing. Cell concentration was computed by comparing the absorbance at 530 nm to 1× McFarland standard solution and multiplying the resulting ratio by 10^7 cell/mL conversion factor. Plate inoculant was prepared by diluting the PBS microbe solution to 5000 cell/mL, in RPMI media. A 100 μL aliquot of cells was transferred to each of the wells on the plate other than column 11 for the no growth control. The operating volume was 200 μL, with 500 CFU per well for a final concentration of 2.5*10^3 cells/mL.
# [2] = test system: C. neoformans cdc50Δ mutant strain; assay type: cell-based, Cryptococcus neoformans; conditions: alone
# Procedure: The assays followed standard CLSI protocol for broth microdilution assays using yeasts.(32) Microbes were passaged in YPD media at 37° C. with mixing for 2 days before harvesting with an inoculation loop to prepare monocultures on Sabouraud Dextrose Agar (SDA) plates. Monocultures on SDA plates were incubated for 2 days at 37° C. before harvesting cells for microdilution assays. RPMI media (100 μL) was charged to each of the 96 wells in a 96 well plate, with an additional 100 μL in the first column. Peptide-DMSO solution (4 μL) at 12.8 mg/mL was charged to each of the wells in the first column. The 100 μL was serially diluted by a factor of 2 from the first column to the 11th column. Microbe inoculant was then prepared. An inoculation loop was used to transfer 1-3 colonies of cells to 1 mL phosphate buffer solution (PBS). The PBS and microbe solution was made uniform by vortex mixing. Cell concentration was computed by comparing the absorbance at 530 nm to 1× McFarland standard solution and multiplying the resulting ratio by 10^7 cell/mL conversion factor. Plate inoculant was prepared by diluting the PBS microbe solution to 5000 cell/mL, in RPMI media. A 100 μL aliquot of cells was transferred to each of the wells on the plate other than column 11 for the no growth control. The operating volume was 200 μL, with 500 CFU per well for a final concentration of 2.5*10^3 cells/mL.
# [3] = test system: C. neoformans wild type strain H99; conditions: concentration of the peptide in combination with caspofungin; H99
# Procedure: Microbes were prepared in the same manner as the MIC assay. […] 100 μL of RPMI media was added to the first 8 wells in the first row. […] The 100 μL of media with drug was serially diluted from the first row to the final row. […] Column 11 was the no growth control, and 12 was the no drug control. The plate was inoculated with microbes in the same manner as the MIC assay. Again, 200 uL was the operating volume, 500 CFU per well, 2.5*10^3 cell/mL. Plates were incubated for 48 hours at 37° C. and read thereafter. The Fractional Inhibitory Concentration Index were calculated as follows:
# Where the MICA and MICB are the MIC values of drugs A and B alone and FICA and FICB are the Fractional Inhibitory concentrations of drugs A and B in the presence of each other, respectively.
# [4] = test system: C. neoformans cdc50Δ mutant strain; assay type: cell-based, Cryptococcus neoformans; conditions: for FIC ug/mL ΔCDC50 Peptide: concentration of the peptide in combination with caspofungin; for FIC Index ΔCDC50: peptide with caspofungin, ΔCDC50 (table S1)
# Procedure: The Fractional Inhibitory Concentration Index were calculated as follows: […]
Compound,MIC ug/mL H99 [1],MIC ug/mL ΔCDC50 [2],FIC ug/mL H99 Peptide [3],FIC ug/mL ΔCDC50 Peptide [4],FIC Index ΔCDC50 [4],MIC ([1]; against C. neoformans H99 wild type)
CCCCCCCCCCCCCCCC(=O)N[C@@H](CO)C(=O)N[C@@H](CCC(=O)O)C(=O)N[C@@H](CO)C(=O)NCC(=O)N[C@H](C(=O)N[C@@H](C)C(=O)N[C@@H](Cc1c[nH]c2ccccc12)C(=O)NCC(=O)NCC(=O)N[C@H](C(=O)N[C@@H](CCCCN)C(=O)N[C@@H](CCCCN)C(=O)N[C@@H](CC(N)=O)C(=O)N[C@@H](Cc1ccc(O)cc1)C(=O)N[C@@H](C)C(=O)O)[C@@H](C)CC)[C@@H](C)CC [AS15-Pa] (Palmitoyl-SESGIAWGGIKKNYA-OH),>128 µg/mL,128 µg/mL,0.5 µg/mL,2 µg/mL,0.53,–
CCCCCC(=O)N[C@@H](CO)C(=O)N[C@@H](CCC(=O)O)C(=O)N[C@@H](CO)C(=O)NCC(=O)N[C@H](C(=O)N[C@@H](C)C(=O)N[C@@H](Cc1c[nH]c2ccccc12)C(=O)NCC(=O)NCC(=O)N[C@H](C(=O)N[C@@H](CCCCN)C(=O)N[C@@H](CCCCN)C(=O)N[C@@H](CC(N)=O)C(=O)N[C@@H](Cc1ccc(O)cc1)C(=O)N[C@@H](C)C(=O)O)[C@@H](C)CC)[C@@H](C)CC [AS15-Ha] (Hexanoyl-SESGIAWGGIKKNYA-OH),>128 µg/mL,>128 µg/mL,–,–,–,–
CCCCCCCCCCCCCC(=O)N[C@@H](Cc1c[nH]c2ccccc12)C(=O)NCC(=O)NCC(=O)N[C@H](C(=O)N[C@@H](CCCCN)C(=O)N[C@@H](C)C(=O)N[C@@H](CC(N)=O)C(=O)N[C@@H](Cc1ccc(O)cc1)C(=O)N[C@@H](C)C(=O)O)[C@@H](C)CC [Peptide K6A-Ma] (Myristoyl-WGGIKANYA-OH),–,–,–,–,–,>128 µg/mL
CCCCCCCCCCCCCC(=O)N[C@@H](Cc1ccc(O)cc1)C(=O)N[C@H](C(=O)N[C@@H](CC(=O)O)C(=O)NCC(=O)N[C@@H](Cc1ccccc1)C(=O)N1CCC[C@H]1C(=O)N[C@@H](CC(N)=O)C(=O)N[C@@H](CC(C)C)C(=O)N[C@@H](CCCNC(=N)N)C(=O)N[C@@H](CCC(=O)O)C(=O)N[C@@H](CC(=O)O)C(=O)N[C@@H](CCC(=O)O)C(=O)N[C@@H](Cc1c[nH]cn1)C(=O)N[C@@H](Cc1ccccc1)C(=O)N[C@@H](CCC(N)=O)C(=O)O)C(C)C [QY15-Ma] (Myristoyl-YVDGFPNLREDEHFQ-OH),>128 µg/mL,128 µg/mL,0.5 µg/mL,0.5 µg/mL,0.25,–
Ac-SESGIAWGGIKKNYA-OH [AS15-Aa],>128 µg/mL,>128 µg/mL,–,–,–,–
H-YVDGFPNLREDEHFQ-OH [QY15],>128 µg/mL,>128 µg/mL,0.5 µg/mL,0.5 µg/mL,0.5-1,–
CCCCCCCCCC(=O)N[C@@H](CO)C(=O)N[C@@H](CCC(=O)O)C(=O)N[C@@H](CO)C(=O)NCC(=O)N[C@H](C(=O)N[C@@H](C)C(=O)N[C@@H](Cc1c[nH]c2ccccc12)C(=O)NCC(=O)NCC(=O)N[C@H](C(=O)N[C@@H](CCCCN)C(=O)N[C@@H](CCCCN)C(=O)N[C@@H](CC(N)=O)C(=O)N[C@@H](Cc1ccc(O)cc1)C(=O)N[C@@H](C)C(=O)O)[C@@H](C)CC)[C@@H](C)CC [AS15-Da] (Decanoyl-SESGIAWGGIKKNYA-OH),>128 µg/mL,>128 µg/mL,–,–,–,–
CCCCCCCCCCCCCCCC(=O)N[C@@H](Cc1c[nH]c2ccccc12)C(=O)NCC(=O)NCC(=O)N[C@H](C(=O)N[C@@H](CCCCN)C(=O)N[C@@H](CCCCN)C(=O)N[C@@H](CC(N)=O)C(=O)N[C@@H](Cc1ccc(O)cc1)C(=O)N[C@@H](C)C(=O)O)[C@@H](C)CC [AW9-Pa] (Palmitoyl-WGGIKKNYA-OH),–,–,0.5 µg/mL,1 µg/mL,–,–
CCCCCCCCCCCCCC(=O)N[C@@H](CO)C(=O)NCC(=O)N[C@H](C(=O)N[C@@H](C)C(=O)N[C@@H](Cc1c[nH]c2ccccc12)C(=O)NCC(=O)NCC(=O)N[C@H](C(=O)N[C@@H](CCCCN)C(=O)O)[C@@H](C)CC)[C@@H](C)CC [KS9-Ma] (Myristoyl-SGIAWGGIK-OH),>128 µg/mL,>128 µg/mL,–,–,–,–
